Experimental data: BigSolDB 2.1

CO/N=C(\C(=O)N[C@@H]1C(=O)N2C(C(=O)O)=C(CSc3nnnn3C)CS[C@H]12)c1csc(N)n1.CO/N=C(\C(=O)N[C@@H]1C(=O)N2C(C(=O)O)=C(CSc3nnnn3C)CS[C@H]12)c1csc(N)n1.Cl
solubility (mole fraction)
Settings	283.15 K	288.15 K	293.15 K	298.15 K	303.15 K	308.15 K	313.15 K
in ethanol	2.61e-05	2.83e-05	3.03e-05	3.17e-05	3.8e-05	4.01e-05	4.68e-05
in methanol	0.000186	0.000196	0.000213	0.000235	0.000253	0.000275	0.000303
in water	3.26e-05	3.59e-05	4.23e-05	4.76e-05	5.29e-05	5.88e-05	6.65e-05
